Laboratory results reported in US8735364B2, “Antisense modulation of apolipoprotein B expression” (Genzyme Corporation, priority 2001, dated 2014).
Oligonucleotides are written 5' to 3', each unit as a sugar letter and its base; * is a phosphorothioate linkage, no mark a phosphodiester; rarer units and linkages stand in square brackets, end groups in braces. Plain capitals give the bases only. e = 2'-O-(2-methoxyethyl) (MOE); [5mC] = 5-methylcytosine; d = 2'-deoxy (DNA)

Test system: human apolipoprotein B mRNA
Test: Inhibition of human apolipoprotein B mRNA levels in HepG2 cells, quantitative real-time PCR
Format: cell-based
Parameters: %INHIB of human apolipoprotein B mRNA levels: concentration or dose not given beside the values
Settings: for %INHIB of human apolipoprotein B mRNA levels: averages from two experiments
Procedure: The human hepatoblastoma cell line HepG2 was obtained from the American Type Culture Collection (Manassas, Va.). HepG2 cells were routinely cultured in Eagle's MEM supplemented with 10% fetal calf serum, non-essential amino acids, and 1 mM sodium pyruvate (Gibco/Life Technologies, Gaithersburg, Md.). Cells were routinely passaged by trypsinization and dilution when they reached 90% confluence. Cells were seeded into 96-well plates (Falcon-Primaria #3872) at a density of 7000 cells/well for use in RT-PCR analysis.
When cells reached 80% confluency, they were treated with oligonucleotide. For cells grown in 96-well plates, wells were washed once with 200 μL OPTI-MEM™-1 reduced-serum medium (Gibco BRL) and then treated with 130 μL of OPTI-MEM™-1 containing 3.75 μg/mL LIPOFECTIN™ (Gibco BRL) and the desired concentration of oligonucleotide. After 4-7 hours of treatment, the medium was replaced with fresh medium. Cells were harvested 16-24 hours after oligonucleotide treatment.
Quantitation of apolipoprotein B mRNA levels was determined by real-time quantitative PCR using the ABI PRISM™ 7700 Sequence Detection System (PE-Applied Biosystems, Foster City, Calif.) according to manufacturer's instructions. This is a closed-tube, non-gel-based, fluorescence detection system which allows high-throughput quantitation of polymerase chain reaction (PCR) products in real-time. As opposed to standard PCR, in which amplification products are quantitated after the PCR is completed, products in real-time quantitative PCR are quantitated as they accumulate. This is accomplished by including in the PCR reaction an oligonucleotide probe that anneals specifically between the forward and reverse PCR primers, and contains two fluorescent dyes. A reporter dye (e.g., JOE, FAM, or VIC, obtained from either Operon Technologies Inc., Alameda, Calif. or PE-Applied Biosystems, Foster City, Calif.) is attached to the 5′ end of the probe and a quencher dye (e.g., TAMRA, obtained from either Operon Technologies Inc., Alameda, Calif. or PE-Applied Biosystems, Foster City, Calif.) is attached to the 3′ end of the probe. When the probe and dyes are intact, reporter dye emission is quenched by the proximity of the 3′ quencher dye. During amplification, annealing of the probe to the target sequence creates a substrate that can be cleaved by the 5′-exonuclease activity of Taq polymerase. […] With each cycle, additional reporter dye molecules are cleaved from their respective probes, and the fluorescence intensity is monitored at regular intervals by laser optics built into the ABI PRISM™ 7700 Sequence Detection System. In each assay, a series of parallel reactions containing serial dilutions of mRNA from untreated control samples generates a standard curve that is used to quantitate the percent inhibition after antisense oligonucleotide treatment of test samples.
PCR reagents were obtained from PE-Applied Biosystems, Foster City, Calif. RT-PCR reactions were carried out by adding 25 μL PCR cocktail (1× TAQMAN™ buffer A, 5.5 mM MgCl2, 300 μM each of DATP, dCTP and dGTP, 600 μM of dUTP, 100 nM each of forward primer, reverse primer, and probe, 20 Units RNAse inhibitor, 1.25 Units AMPLITAQ GOLD™, and 12.5 Units MuLV reverse transcriptase) to 96 well plates containing 25 μL total RNA solution. The RT reaction was carried out by incubation for 30 minutes at 48° C. Following a 10 minute incubation at 95° C. to activate the AMPLITAQ GOLD™, 40 cycles of a two-step PCR protocol were carried out: 95° C. for 15 seconds (denaturation) followed by 60° C. for 1.5 minutes (annealing/extension).
Gene target quantities obtained by real time RT-PCR are normalized using either the expression level of GAPDH, a gene whose expression is constant, or by quantifying total RNA using RiboGreen™ (Molecular Probes, Inc. Eugene, Oreg.). GAPDH expression is quantified by real time RT-PCR, by being run simultaneously with the target, multiplexing, or separately. […]

| Substance | %INHIB of human apolipoprotein B mRNA levels | also measured |
| --- | --- | --- |
| 147784 (antisense e[5mC]*eA*eG*e[5mC]*eG*d[5mC]*d[5mC]*dA*dG*d[5mC]*dA*dG*d[5mC]*dG*d[5mC]*e[5mC]*eA*eG*e[5mC]*eA) [compound 147784] | 70% |  |
| 147785 (antisense eG*e[5mC]*e[5mC]*e[5mC]*eG*d[5mC]*d[5mC]*dA*dG*d[5mC]*dA*dG*d[5mC]*dA*dG*e[5mC]*eA*eG*e[5mC]*eA) [compound 147785] | 29% |  |
| 147786 (antisense e[5mC]*eT*eT*eG*eA*dA*dT*d[5mC]*dA*dG*d[5mC]*dA*dG*dT*d[5mC]*e[5mC]*e[5mC]*eA*eG*eG) [compound 147786] | 34% |  |
| 147788 (antisense eT*eT*eT*e[5mC]*eT*dG*dT*dT*dG*d[5mC]*d[5mC]*dA*d[5mC]*dA*dT*eT*eG*e[5mC]*e[5mC]*e[5mC]) [compound 147788] | 95% | Percent Inhibition of human apolipoprotein B mRNA levels (50 nM): 54%; Percent Inhibition of human apolipoprotein B mRNA levels (150 nM): 63%; Percent Inhibition of human apolipoprotein B mRNA levels (250 nM): 72% |
| 147790 (antisense eT*eG*eT*eG*e[5mC]*dT*dA*d[5mC]*d[5mC]*dA*dT*d[5mC]*d[5mC]*d[5mC]*dA*eT*eA*e[5mC]*eT*eT) [compound 147790] | 33% |  |
| 147792 (antisense eG*eG*eA*e[5mC]*eA*d[5mC]*d[5mC]*dT*d[5mC]*dA*dA*dT*d[5mC]*dA*dG*e[5mC]*eT*eG*eT*eG) [compound 147792] | 26% |  |
| 147794 (antisense eG*eT*eA*eA*eT*d[5mC]*dT*dT*d[5mC]*dA*dT*d[5mC]*d[5mC]*d[5mC]*d[5mC]*eA*eG*eT*eG*e[5mC]) [compound 147794] | 47% |  |
| 147796 (antisense eG*e[5mC]*eA*eG*e[5mC]*d[5mC]*dA*dG*dT*d[5mC]*dG*d[5mC]*dT*dT*dA*eT*e[5mC]*eT*e[5mC]*e[5mC]) [compound 147796] | 8% |  |
| 147801 (antisense e[5mC]*eA*eG*eA*e[5mC]*d[5mC]*d[5mC]*dG*dA*d[5mC]*dT*d[5mC]*dG*dT*dG*eG*eA*eA*eG*eA) [compound 147801] | 38% |  |
| 147806 (antisense eA*eT*eG*eT*eG*dG*dT*dA*dA*d[5mC]*dG*dA*dG*d[5mC]*d[5mC]*e[5mC]*eG*eA*eA*eG) [compound 147806] | 100% | Percent Inhibition of human apolipoprotein B mRNA levels (50 nM): 23%; Percent Inhibition of human apolipoprotein B mRNA levels (150 nM): 45%; Percent Inhibition of human apolipoprotein B mRNA levels (250 nM): 28% |
| 147807 (antisense eG*eG*e[5mC]*eG*eT*dA*dG*dA*dG*dA*d[5mC]*d[5mC]*d[5mC]*dA*dT*e[5mC]*eA*e[5mC]*eA*eT) [compound 147807] | 25% |  |
| 147809 (antisense e[5mC]*e[5mC]*e[5mC]*eA*eG*dT*dG*dA*dT*dA*dG*d[5mC]*dT*d[5mC]*dT*eG*eT*eG*eA*eG) [compound 147809] | 60% |  |
| 147810 (antisense eA*eT*eT*eT*e[5mC]*dA*dG*d[5mC]*dA*dT*dA*dT*dG*dA*dG*e[5mC]*e[5mC]*e[5mC]*eA*eT) [compound 147810] | 0% |  |
| 147814 (antisense e[5mC]*e[5mC]*e[5mC]*eA*eA*dT*dA*dA*dG*dA*dT*dT*dT*dA*dT*eA*eA*e[5mC]*eA*eA) [compound 147814] | 34% |  |
| 147815 (antisense eT*eG*eG*e[5mC]*e[5mC]*dT*dA*d[5mC]*d[5mC]*dA*dG*dA*dG*dA*d[5mC]*eA*eG*eG*eT*eA) [compound 147815] | 45% |  |
| 147818 (antisense eA*eG*eT*eG*eA*dT*dG*dG*dA*dA*dG*d[5mC]*dT*dG*d[5mC]*eG*eA*eT*eA*e[5mC]) [compound 147818] | 30% |  |
| 147820 (antisense eG*eA*eA*e[5mC]*eA*d[5mC]*dA*dT*dA*dG*d[5mC]*d[5mC]*dG*dA*dA*eT*eG*e[5mC]*e[5mC]*eG) [compound 147820] | 100% | Percent Inhibition of human apolipoprotein B mRNA levels (50 nM): 10%; Percent Inhibition of human apolipoprotein B mRNA levels (150 nM): 0%; Percent Inhibition of human apolipoprotein B mRNA levels (250 nM): 73% |
| 147823 (antisense eT*eG*e[5mC]*e[5mC]*e[5mC]*dT*dG*d[5mC]*dA*dG*d[5mC]*dT*dT*d[5mC]*dA*e[5mC]*eT*eG*eA*eA) [compound 147823] | 19% |  |
| 147825 (antisense eA*eG*eA*eA*eG*d[5mC]*dT*dG*d[5mC]*d[5mC]*dT*d[5mC]*dT*dT*d[5mC]*eT*eT*e[5mC]*e[5mC]*e[5mC]) [compound 147825] | 72% |  |
| 147826 (antisense eT*e[5mC]*eA*eG*eG*dG*dT*dG*dA*dG*d[5mC]*d[5mC]*d[5mC]*dT*dG*eT*eG*eT*eG*eT) [compound 147826] | 80% |  |
| 147827 (antisense e[5mC]*eT*eA*eA*eT*dG*dG*d[5mC]*d[5mC]*d[5mC]*d[5mC]*dT*dT*dG*dA*eT*eA*eA*eA*e[5mC]) [compound 147827] | 13% |  |
| 147828 (antisense eA*e[5mC]*eG*eT*eT*dA*dT*d[5mC]*d[5mC]*dT*dT*dG*dA*dG*dT*e[5mC]*e[5mC]*e[5mC]*eT*eG) [compound 147828] | 12% |  |
| 147829 (antisense eT*eA*eT*eA*eT*d[5mC]*d[5mC]*d[5mC]*dA*dG*dG*dT*dT*dT*d[5mC]*e[5mC]*e[5mC]*e[5mC]*eG*eG) [compound 147829] | 64% |  |
| 147831 (antisense e[5mC]*eT*eG*e[5mC]*e[5mC]*dT*dA*d[5mC]*dT*dG*d[5mC]*dA*dA*dG*dG*e[5mC]*eT*eG*eG*e[5mC]) [compound 147831] | 0% |  |
| 147833 (antisense eA*eT*eG*eA*eT*dA*d[5mC]*dA*d[5mC]*dA*dA*dT*dA*dA*dA*eG*eA*e[5mC]*eT*e[5mC]) [compound 147833] | 25% |  |
